Data from publication PMC13080237, “Functional divergence of protein kinase A regulatory subunit Iβ variants: the importance of N3A motifs in PKA regulation” (The Febs Journal, 2025).

Tests used:
RIβ (RIβ A268; His-RIβ) [1] = target: T1, RIβ (RIβ A268; His-RIβ) (Homo sapiens, UniProt P31321, A268R); experiment: fluorescence polarization, direct titration; type: binding; details: labelled compound; 0.5 nM 8-Fluo-cAMP, RIβ R268 dilution series; 20 mM MOPS pH 7.4, 150 mM NaCl, room temperature; residue 268 in bovine RIα numbering (270 in human RIβ); read-out: affinity
T1 construct: gene PRKAR1B; full-length, N-terminal His-tag (pQTEV vector), E. coli TP2000 cells, Ni-NTA; dimer; 380 residues as printed
T1 sequence (P31321 2-381 A268R): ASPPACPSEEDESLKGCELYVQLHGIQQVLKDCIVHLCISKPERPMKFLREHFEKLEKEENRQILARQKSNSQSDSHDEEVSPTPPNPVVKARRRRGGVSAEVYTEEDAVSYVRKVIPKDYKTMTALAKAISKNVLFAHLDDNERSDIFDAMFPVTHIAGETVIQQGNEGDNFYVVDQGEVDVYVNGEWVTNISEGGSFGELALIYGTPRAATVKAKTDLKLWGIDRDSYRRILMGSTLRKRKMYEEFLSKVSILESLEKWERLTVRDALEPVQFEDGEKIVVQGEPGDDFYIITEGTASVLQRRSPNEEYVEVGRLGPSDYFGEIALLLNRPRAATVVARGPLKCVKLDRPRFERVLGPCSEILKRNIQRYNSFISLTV

RIβ (RIβ A268; His-RIβ) [2] = target: T2, RIβ (RIβ A268; His-RIβ) (Homo sapiens, UniProt P31321); experiment: fluorescence polarization, direct titration; type: binding; details: labelled compound; 0.5 nM 8-Fluo-cAMP, RIβ dilution series; 20 mM MOPS pH 7.4, 150 mM NaCl, room temperature; read-out: affinity
T2 construct: gene PRKAR1B; full-length, N-terminal His-tag (pQTEV vector), E. coli TP2000 cells, Ni-NTA; dimer; 380 residues as printed
T2 sequence (P31321 2-381): as the sequence (P31321 2-381 A268R) above, with R267A counted along it

[3] = target: GFP2 fusion of human PKA Cα (BRET acceptor) (human) (UniProt P17612); experiment: FRET or BRET; BRET2 in living HEK293 cells; RLuc8 fused to the R subunit, GFP2 fused to the C subunit; 37 °C, HBSS w/o Mg2+/Ca2+ pH 7.4, coelenterazine 400a; time courses and end points (20 min); cells treated with buffer, 100 nM isoproterenol, or 50 uM forskolin + 100 uM IBMX

Row | Kd (RIβ (RIβ A268; His-RIβ) [1]) [nM] | Kd (RIβ (RIβ A268; His-RIβ) [2]) [nM] | maximal cAMP-induced dissociation of the holoenzyme (%) [3] [%] | Substance
1 | 4 | 4 | – | 8‐(2‐[fluoresceinyl]aminoethylthio)‐cAMP [8-Fluo-cAMP]
2 | – | – | 30 | RLuc8 fusion of human RIβ R268 (BRET donor) (natural protein)
